# Experimental data as given in patent US6699860B2, “Di-substituted aminomethyl-chroman derivative beta-3 adrenoreceptor agonists” (Bayer Pharmaceuticals Corporation, priority 2000, dated 2004).
# Structures can show the parent of a compound that is named as a salt.
# Biological target: T1, human beta-3-adrenergic receptor (Homo sapiens, UniProt P13945)
# T1 construct: Chinese hamster ovary (CHO) cells that stably express full-length human beta-3-adrenergic receptor; expressed in transfected cells
# T1 sequence (P13945 whole entry): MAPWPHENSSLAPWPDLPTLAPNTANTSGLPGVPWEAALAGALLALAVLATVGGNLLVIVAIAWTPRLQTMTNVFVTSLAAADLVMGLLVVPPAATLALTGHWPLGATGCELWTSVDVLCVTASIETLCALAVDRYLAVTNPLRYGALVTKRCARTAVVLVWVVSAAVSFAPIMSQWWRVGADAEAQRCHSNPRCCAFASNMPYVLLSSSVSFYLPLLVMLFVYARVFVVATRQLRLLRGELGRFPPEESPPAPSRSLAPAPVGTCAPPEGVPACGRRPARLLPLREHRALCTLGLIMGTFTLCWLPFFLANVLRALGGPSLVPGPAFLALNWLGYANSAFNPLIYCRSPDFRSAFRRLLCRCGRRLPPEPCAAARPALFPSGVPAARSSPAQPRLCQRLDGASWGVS
# Test: cAMP production (SPA) in CHO cells stably expressing human beta-3-adrenergic receptor, agonist activity
# Type: cell-based
# Details: cAMP production in CHO cells expressing human beta-3-adrenergic receptor; compounds binned (≦1 μM or >1 μM); read-out: Beta-3 Agonistic Activity, EC50 values
# Protocol: The cell line is grown in 90% F12 nutrient mixture (HAM), 10% fetal bovine serum, 100 units/ml penicillin G sodium, […] streptomycin sulfate, and 2 mM L-glutamine at 37° C. in 95% air and 5% CO2. The transfected cell line is maintained with G418 (800ug/ml).
# To test agonist activity, cells are exposed to test compound and then assayed for cAMP production. […] Test compounds are assayed from 10 μM to 3 nM with 3-fold serial dilutions. The control agonist, isoproterenol (10 mM stock in 1.1 mM ascorbate), is assayed by 3-fold dilution beginning at 1 μM. Following a 30-minute incubation with the test compounds, the buffer/compound mixture is removed. […] The cAMP values are then plotted to ascertain the EC50 of each compound tested.
row,SMILES,EC50 [nM]
1,"O=C(O)c1ccc(-c2ccc3c(c2)CC[C@H](CNC[C@H](O)COc2cccc4[nH]c5ccccc5c24)O3)cc1 [Example 141, 4-[(2R)-2-({[(2S)-3-(9H-Carbazol-4-yloxy)-2-hydroxypropyl]amino}methyl)-3,4-dihydro-2H-chromen-6-yl]benzoic acid]",≤ 1000
2,CCOC(=O)c1sc(-c2ccc3c(c2)CC[C@H](CNC[C@H](O)COc2ccccc2)O3)nc1C(C)C [Example 137],> 1000
3,COc1ccc(OCC(O)CNC[C@H]2CCc3cc(-c4ccc(C(=O)O)cc4)ccc3O2)cc1 (stereo partly shown) [Example 230],> 1000
4,COC(=O)c1nc(-c2ccc3c(c2)CC[C@H](CNC[C@H](O)COc2ccccc2)O3)sc1-c1ccccc1 [Example 135],≤ 1000
5,NC(=O)c1cc2c(OCC(O)CNC[C@H]3CCc4cc(CCC(=O)O)ccc4O3)cccc2[nH]1 (stereo partly shown) [Example 270],> 1000
6,O=C(O)c1cc(-c2ccc3c(c2)CC[C@H](CNC[C@H](O)COc2ccccc2)O3)cc2c1OCC2 [Example 185],≤ 1000
7,Cc1ccc(-c2cc(-c3ccc4c(c3)CC[C@H](CNC[C@H](O)COc3ccccc3)O4)ccc2C(=O)O)cc1 [Example 217],≤ 1000
8,CC(C)c1sc(-c2ccc3c(c2)CC[C@H](CNC[C@H](O)COc2ccccc2)O3)nc1C(=O)O [Example 191],≤ 1000
9,Cc1ccccc1OCC(O)CNC[C@H]1CCc2cc(-c3ccc(C(=O)O)cc3)ccc2O1 (stereo partly shown) [Example 227],≤ 1000

# Next, values leading:
row,EC50 [nM],SMILES
1,≤ 1000,O=C(O)c1ccc2cc(-c3ccc4c(c3)CC[C@H](CNC[C@H](O)COc3ccccc3)O4)ccc2c1 [Example 182]
2,≤ 1000,O=C(O)c1nc(-c2ccc3c(c2)CC[C@H](CNC[C@H](O)COc2ccccc2)O3)oc1-c1ccccc1 [Example 187]
3,> 1000,COc1ccc(SC[C@@H](O)CNC[C@H]2CCc3cc(-c4ccc(C(=O)O)cc4)ccc3O2)cc1 [Example 179]
4,≤ 1000,CCOc1cc(-c2ccc3c(c2)CC[C@H](CNC[C@H](O)COc2ccccc2)O3)ccc1C(=O)O [Example 207]
5,≤ 1000,O=C(O)c1ccc(-c2ccc3c(c2)CC[C@H](CNCC(O)COc2ccccc2Cl)O3)cc1 (stereo partly shown) [Example 234]
6,≤ 1000,COC(=O)c1cc(-c2ccc3c(c2)CC[C@H](CNC[C@H](O)COc2ccccc2)O3)cc2c1OCC2 [Example 130]
7,≤ 1000,O=C(O)c1nc(-c2ccc3c(c2)CC[C@H](CNC[C@H](O)COc2ccccc2)O3)sc1-c1ccccc1 [Example 188]
8,≤ 1000,"CCCCNc1cc(-c2ccc3c(c2)CC[C@H](CNC[C@H](O)COc2ccccc2)O3)ccc1C(=O)O [Example 195, 2-(butylamino)-4-[(2R)-2-({[(2)-2-hydroxy-3-(phenyloxy)propyl]amino}methyl)-3,4-dihydro-2H-chromen-6-yl]benzoic acid]"
9,≤ 1000,O=C(O)CCc1ccc2c(c1)CC[C@H](CNC[C@H](O)COc1ccc(F)cc1)O2 [Example 268]
10,≤ 1000,CC(C)CNc1cc(-c2ccc3c(c2)CC[C@H](CNC[C@H](O)COc2ccccc2)O3)ccc1C(=O)O [Example 200]
11,> 1000,CCc1ccc(SC[C@@H](O)CNC[C@H]2CCc3cc(-c4ccc(C(=O)O)cc4)ccc3O2)cc1 [Example 170]
12,> 1000,O=C(O)c1ccc(-c2ccc3c(c2)CC[C@H](CNC[C@H](O)CSc2cccc(F)c2)O3)cc1 [Example 175]

# System: not given
# Test: not given
# Details: not given
row,melting point [°C],SMILES
1,250,"O=C(O)c1ccc(-c2ccc3c(c2)CC[C@H](CNC[C@H](O)COc2ccccc2)O3)cc1 (as salt: hydrochloride) [Example 142, 4-[(2R)-2-({[(2S)-2-Hydroxy-3-phenoxyropyl]amino}methyl)-3,4-dihydro-2H-chromen-6-yl]benzoic acid]"
